What all share (type): cell-based
Data set [1] has as its system human PBMC from steroid resistant asthmatics or healthy donors. Briefly: Cytokine production in PBMC from steroid resistant asthmatics or healthy donors (Cytometric Bead Array). The conditions noted are these: 25 μM or 100 μM, 48 hours, CBA. On the procedure: Blood samples were obtained from healthy volunteers or steroid resistant asthmatics. PBMC were isolated by density gradient centrifugation using Ficoll-Paque Plus (Pharmacia Biotech, Uppsala, Sweden), washed three times in buffered saline solution (PBS), and re-suspended in RPMI 1640 (Sigma) containing 10% heat inactivated fetal calf serum (FCS) (Life Technologies), 100 U/mL penicillin 100 μg/mL streptomycin (Life Technologies), 2 mM L-glutamine (Sigma), gentamycin (Sigma) and 5 mM Hepes (Gibco, Life Technologies). Cells were counted using 0.4% Trypan blue solution (Sigma Aldrich)
PBMC, prepared as previously described were, directly after seeding, stimulated with SEQ.ID.NO. 1. (25 μM and 100 μM) in the presence or absence of Dex (10^−6, 10^−8 and 10^−10 M) into a 96-well flat bottomed cell culture plate at 500 000 cells/well in RPMIc. As control ODN, 1 μM of IDX0910 was used. After treatment, cells were incubated in a humified incubator at 5% carbon dioxide and 37° C. for 48 hrs. Supernatants were saved and stored at −20° C. prior to cytokine level determination.
The supernatants were kept at −20° C. until analyzed. IFN-, IL-6, IL-10, IL-2, IL-4 and TNF-alpha were measured utilizing the Cytometric Bead Array (CBA) from Becton Dickenson (BD), according to the manufacturer's protocol. The lower detection limit was 20 pg/ml for each cytokine. The FACSCalibur was used for all CBA analysis for this study.
PBMCs were incubated in medium (basal) or with 25 μM (hatched bars) or 100 μM (dotted bars) of the CpG containing SEQ.ID.NO.1 for 48 hours before detection of IL-6 in supernatant. Each bar of the histogram represents average amount of IL-6 production from 9 healthy donors and 9 steroid resistant asthmatics. Experiments were performed in triplicate for each blood donor. Background levels of IL-6 (medium) were subtracted from each group of samples.

Data set [2] relates to human PBMC. Briefly: IL-10 induction from healthy human PBMC by SEQ.ID.NO 1 after dexamethasone pre-incubation (ELISA). On the procedure: ELISA assays where performed according to the manufactures recommended guidelines (R&D systems). Plates were analyzed using AID ELISpot reader system (Autoimmun Diagnostika GmbH, Strassberg Germany).
For this assay again 500,000 PBMC cells per well, derived from blood from healthy human donors, were incubated for 12 hours in the presence of various concentrations of dexamethasone, after which, the cells were washed and fresh medium as added. The cells were then allowed to further incubate in the presence of either 25 uM or 100 uM of SEQ.ID.NO 1 for an additional 24 hours after which levels of IL-10 were measured using a commercial available IL-10 ELISA kit.
For orientation: An ELISA detects its analyte on a solid surface through an enzyme-linked reagent.

The test system of data set [3] is human PBMC. Briefly: Induction of IFN-gamma from healthy human PBMC (ELISpot). The settings on record: PBMC from 7 healthy individuals, 48 hours, FIG. 12. On the procedure:
Whole blood was obtained from healthy blood donors. PBMCs were prepared from 30 ml whole blood according to the following protocol:
30 ml blood was transferred directly into heparinized tubes. All blood was transferred into one 50 ml Falcon tube and PBS added up to 50 ml. 15 ml Ficoll (17-1440-03, obtained from Amersham Bioscience AB, Uppsala) was then added into two falcon tubes (50 ml). The PBS-treated blood was then carefully added on the top of to Ficoll, 25 ml to each tube. The tubes were then centrifuged 25 min at 1700 RPM at RT (20° C.).
RPMIc medium was prepared under sterile conditions, using a 0.22 uM filter. (RPMIc denotes a RPMI 1640 culture medium (R0883, Sigma) supplemented with 5% heat-inactivated (56° C.,1 h) FCS 1.5 mM L-glutamine (G7513, Sigma), 100 U/ml penicillin and 100 ug/ml streptomycin, PEST (P0781, Sigma), hepes (H0887, Sigma), and gentamycin (G1272, Sigma)). […]
The cells were counted and left in PBS, then centrifuged at 1200 RPM, 10 min. Medium was then added to obtain the concentration of interest, and the cells counted (16 squares)×3. The mean value was calculated and multiplied with the dilution factor×10^4=cells/ml. […]
Elispot assays where performed according to the manufactures recommended guidelines (MabTech) and the plates were analyzed using an AID ELISpot reader system (Autoimmun Diagnostika GmbH, Strassberg, Germany). […]

“Also recorded” adds a separate entry of the source. In the oligonucleotide strings, read from the 5' end, every base follows the letter of its sugar. An asterisk marks phosphorothioate; unmarked linkages are phosphodiester. Other units and linkages are bracketed, terminal groups are in braces. A string of capitals states the bases alone. d = 2'-deoxy (DNA)

In the case of “5′-G*G*A*ACAGTTCGTCCAT*G*G*C-3′ (DNA dG*dG*dA*dAdCdAdGdTdTdCdGdTdCdCdAdT*dG*dG*dC) [SEQ.ID.NO 1, (Hu p65)AS, CpG-containing ODN; * marks phosphorothioate linkage, others phosphodiester]”, in data set [1] (9 healthy donors and 9 steroid resistant asthmatics), the “IL-6 induced, steroid resistant PBMCs compared to healthy PBMCs” value was “significantly lower”. Besides, in data set [1], the “IL-10 induced, steroid resistant PBMCs compared to healthy PBMCs” value is given as “significantly lower” and the “interferon-gamma induced, steroid resistant PBMCs compared to healthy PBMCs” value is reported as “significantly lower”. Further, the IL-10 production entry in the data set with human PBMC [2] (25 uM SEQ.ID.NO 1 for 24 hours after 12 hours prior incubation with dexamethasone) is listed as “little production of IL-10”. Also, the IL-10 production result in the data set with human PBMC [2] (100 uM SEQ.ID.NO 1 for 24 hours after 12 hours prior incubation with dexamethasone (most apparent at 10^−10 M)) was “dramatic increase in the amount of IL-10 produced; also recorded: levels higher than either mono treatment alone”. The “concentration at which induction of IFN-gamma becomes apparent” value in the data set with human PBMC [3] is recorded as “around 25 uM”.

The values above are taken from US8895522B2, “Composition and method for the prevention, treatment and/or alleviation of an inflammatory disease” (Index Pharmaceuticals AB, priority 2005, dated 2014).
